Data on 7 molecules can be found in PMC10974732 (2024).

Values after ≈ are worked out from the molar mass of the structure shown.

For the assay, the system named is 2B.N2A9 (DNA, aptamer) CATCTGCAGTGTGGCACCATGGGCATTGGGGGGCGAGGGTGGTTGGAGCGTTTGTGTGCGACGTGCTGAGCGTGAATTCGC
As to the kind of experiment: indirect competitive ELOSA (SA-HRP/TMB). Conditions: 37 °C, 1 h; 50 nM aptamer; competes with immobilised Neu5Gc-BSA (1 μg/mL coating).

The IC50 is the concentration that inhibits the measured activity by half.

For the molecule `CC(=O)N[C@@H]1C(O)O[C@H](CO)[C@@H](O)[C@@H]1O` (stereo partly shown), the IC50 is 36,307.8 ng/mL.
Regarding `O=C(O)C1(O)C[C@H](O)[C@@H](O)[C@H]([C@H](O)[C@H](O)CO)O1` (stereo partly shown), the 50% inhibitory concentration (IC50) stood at 1659.58 ng/mL (≈ 6.19 µM).
`O=C(CO)N[C@H]1[C@H]([C@H](O)[C@H](O)CO)OC(O)(C(=O)O)C[C@@H]1O` (stereo partly shown) registered an IC50 of 9.35 ng/mL (≈ 0.0287 µM).
With `OC[C@H]1OC(O)[C@H](O)[C@@H](O)[C@@H]1O` (stereo partly shown), the IC50 is > 93,500.00 ng/mL.
For the molecule `OC[C@H]1O[C@@](CO)(O[C@H]2O[C@H](CO)[C@@H](O)[C@H](O)[C@H]2O)[C@@H](O)[C@@H]1O`, the half-maximal inhibitory concentration (IC50) is > 93,500.00 ng/mL.
In the case of `CC(=O)N[C@H]1[C@H]([C@H](O)[C@H](O)CO)OC(O)(C(=O)O)C[C@@H]1O` (stereo partly shown), the IC50 was 467.74 ng/mL (≈ 1.51 µM).
Take `OC[C@H]1O[C@H](O[C@H]2[C@H](O)[C@@H](O)C(O)O[C@@H]2CO)[C@H](O)[C@@H](O)[C@@H]1O` (stereo partly shown): the IC50 is > 93,500.00 ng/mL.
